Legend:
[1] = system: SMN2 minigene mRNA (SMN2-A minigene) in HEK293H cells; assay: SMN2 minigene mRNA splicing RT-qPCR assay in cultured cells; assay type: cell-based, human; details: Homo sapiens, HEK293-H; concentration increasing full length SMN2 mRNA 1.5-fold relative to vehicle-treated cells; HEK293H cells with SMN2-A minigene, 24 hours, 7-point concentration data; read-out: EC1.5x for production of full length SMN2 mRNA
In short: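 Potency reflects the concentration that lifts full-length SMN2 minigene mRNA 1.5-fold above vehicle in stably transfected HEK293H cells after 24 h of treatment. Transcript abundance came from RT-qPCR as (1+E)^−Ct, normalized to GAPDH; endogenous SMN1/SMN2 are not detected.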

[2] = system: Smn protein in SMA patient fibroblast cells (GM03813); assay: Smn protein assay in cultured cells (SMN HTRF); assay type: cell-based, human; details: SMA patient fibroblast cells, 48 hours; for EC1.5x for Smn protein expression: 7-point concentration curve, SMN HTRF, concentration producing 1.5 times Smn protein vs DMSO vehicle control; for maximum fold (Fold) increase of Smn protein: 7-point concentration data, fold relative to vehicle control
In short: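 Smn protein abundance in treated SMA fibroblasts was measured by HTRF after 48 h compound exposure. The reported EC1.5× is the concentration producing 1.5 times vehicle Smn levels.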

SMILES | melting point | EC (1.5-fold increase) [1] | EC1.5x for Smn protein expression [2] | maximum fold (Fold) increase of Smn protein [2]
COc1ccc(-c2cc(=O)n3cc(N4CCN[C@@H](C)C4)ccc3n2)cc1OC(F)(F)F [Compound 83, 2-[4-methoxy-3-(trifluoromethoxy)phenyl]-7-[(3S)-3-methylpiperazin-1-yl]-4H-pyrido[1,2-a]pyrimidin-4-one] | 176 to 178 °C | 0.3 to 1 µM | – | * (A maximum fold increase of ≤1.2 is indicated by one star (*))
C[C@H]1CN(c2ccc3nc(-c4ccc(O)c(OC(F)(F)F)c4)cc(=O)n3c2)CCN1 [Compound 84, 2-[4-hydroxy-3-(trifluoromethoxy)phenyl]-7-[(3S)-3-methylpiperazin-1-yl]-4H-pyrido[1,2-a]pyrimidin-4-one] | 152 to 155 °C | 1 to 3 µM | ** (an EC1.5× between >1 μM and ≤3 μM is indicated by two stars (**)) | ***** (a fold increase >1.65 is indicated by five stars (*****))
COc1ccc(-c2cc(=O)n3cc(N4CCN[C@@H](C)C4)ccc3n2)c(OC)c1 [Compound 90, 2-(2,4-dimethoxyphenyl)-7-[(3S)-3-methylpiperazin-1-yl]-4H-pyrido[1,2-a]pyrimidin-4-one] | 172 to 177 °C | 1 to 3 µM | * (An EC1.5× for Smn protein expression between >3 μM and ≤10 μM is indicated by one star (*)) | *** (a fold increase between >1.35 and ≤1.5 is indicated by three stars (***))
C[C@H]1CN(c2ccc3nc(-c4cncc(F)c4)cc(=O)n3c2)CCN1 [Compound 93, 2-(5-fluoropyridin-3-yl)-7-[(3S)-3-methylpiperazin-1-yl]-4H-pyrido[1,2-a]pyrimidin-4-one] | 191 to 199 °C | 1 to 3 µM | – | ** (a fold increase between >1.2 and ≤1.35 is indicated by two stars (**))
C[C@H]1CN(c2ccc3nc(-c4cncc(Cl)c4)cc(=O)n3c2)CCN1 [Compound 95, 2-(5-chloropyridin-3-yl)-7-[(3S)-3-methylpiperazin-1-yl]-4H-pyrido[1,2-a]pyrimidin-4-one] | 227 to 232 °C | 1 to 3 µM | ** (an EC1.5× between >1 μM and ≤3 μM is indicated by two stars (**)) | **** (a fold increase between >1.5 and ≤1.65 is indicated by four stars (****))
COc1ccc(-c2cc(=O)n3cc(N4CCN[C@@H](C)C4)ccc3n2)cc1OC(F)F [Compound 101, 2-[3-(difluoromethoxy)-4-methoxyphenyl]-7-[(3S)-3-methylpiperazin-1-yl]-4H-pyrido[1,2-a]pyrimidin-4-one] | 167 to 169 °C | 0.3 to 1 µM | – | *** (a fold increase between >1.35 and ≤1.5 is indicated by three stars (***))
C[C@H]1CN(c2ccc3nc(-c4ccc(O)c(OC(F)F)c4)cc(=O)n3c2)CCN1 [Compound 102, 2-[3-(difluoromethoxy)-4-hydroxyphenyl]-7-[(3S)-3-methylpiperazin-1-yl]-4H-pyrido[1,2-a]pyrimidin-4-one] | 192 to 197 °C | 0.3 to 1 µM | *** (an EC1.5× between >0.3 μM and ≤1 μM is indicated by three stars (***)) | ***** (a fold increase >1.65 is indicated by five stars (*****))
COc1ccc(-c2cc(=O)n3cc(N4CCNCC4)ccc3c2)cc1F [Compound 103, 2-(3-fluoro-4-methoxyphenyl)-7-(piperazin-1-yl)-4H-quinolizin-4-one] | 200 to 202 °C | 0.3 to 1 µM | – | *** (a fold increase between >1.35 and ≤1.5 is indicated by three stars (***))
COc1ccc(-c2cc(=O)n3cc(N4CCN[C@@H](C)C4)ccc3c2)cc1F [Compound 104, 2-(3-fluoro-4-methoxyphenyl)-7-[(3S)-3-methylpiperazin-1-yl]-4H-quinolizin-4-one] | 188 to 192 °C | 0.3 to 1 µM | – | *** (a fold increase between >1.35 and ≤1.5 is indicated by three stars (***))
C[C@H]1CN(c2ccc3nc(-c4cc(F)cc(F)c4)cc(=O)n3c2)CCN1 [Compound 105, 2-(3,5-difluorophenyl)-7-[(3S)-3-methylpiperazin-1-yl]-4H-pyrido[1,2-a]pyrimidin-4-one] | 189 to 194 °C | 0.1 to 0.3 µM | *** (an EC1.5× between >0.3 μM and ≤1 μM is indicated by three stars (***)) | **** (a fold increase between >1.5 and ≤1.65 is indicated by four stars (****))

Further lines, with some results ahead:

melting point | SMILES | EC (1.5-fold increase) [1] | EC1.5x for Smn protein expression [2] | maximum fold (Fold) increase of Smn protein [2]
195 to 198 °C | O=c1cc(-c2cc(F)cc(F)c2)nc2ccc(N3CCNCC3)cn12 [Compound 79, 2-(3,5-difluorophenyl)-7-(piperazin-1-yl)-4H-pyrido[1,2-a]pyrimidin-4-one] | 0.1 to 0.3 µM | *** (an EC1.5× between >0.3 μM and ≤1 μM is indicated by three stars (***)) | **** (a fold increase between >1.5 and ≤1.65 is indicated by four stars (****))
140 to 143 °C | O=c1cc(-c2cccc(OC(F)(F)F)c2)nc2ccc(N3CCNCC3)cn12 [Compound 80, 7-(piperazin-1-yl)-2-[3-(trifluoromethoxy)phenyl]-4H-pyrido[1,2-a]pyrimidin-4-one] | 1 to 3 µM | – | * (A maximum fold increase of ≤1.2 is indicated by one star (*))
175 to 178 °C | COc1ccc(-c2cc(=O)n3cc(N4CCN[C@H](C)C4)ccc3n2)cc1F [Compound 86, 2-(3-fluoro-4-methoxyphenyl)-7-[(3R)-3-methylpiperazin-1-yl]-4H-pyrido[1,2-a]pyrimidin-4-one] | 0.1 to 0.3 µM | **** (an EC1.5x≤0.3 μM is indicated by four stars (****)) | **** (a fold increase between >1.5 and ≤1.65 is indicated by four stars (****))
175 to 178 °C | COc1ccc(-c2cc(=O)n3cc(N4CCN[C@@H](C)C4)ccc3n2)cc1F [Compound 87, 2-(3-fluoro-4-methoxyphenyl)-7-[(3S)-3-methylpiperazin-1-yl]-4H-pyrido[1,2-a]pyrimidin-4-one] | 0.1 to 0.3 µM | *** (an EC1.5× between >0.3 μM and ≤1 μM is indicated by three stars (***)) | **** (a fold increase between >1.5 and ≤1.65 is indicated by four stars (****))
173 to 178 °C | COc1ccc(-c2cc(=O)n3cc(N4CCNCC4)ccc3n2)cn1 [Compound 88, 2-(6-methoxypyridin-3-yl)-7-(piperazin-1-yl)-4H-pyrido[1,2-a]pyrimidin-4-one] | 1 to 3 µM | – | ** (a fold increase between >1.2 and ≤1.35 is indicated by two stars (**))
171 to 173 °C | COc1ccc(-c2cc(=O)n3cc(N4CCNCC4)ccc3n2)c(OC)c1 [Compound 89, 2-(2,4-dimethoxyphenyl)-7-(piperazin-1-yl)-4H-pyrido[1,2-a]pyrimidin-4-one] | 1 to 3 µM | – | *** (a fold increase between >1.35 and ≤1.5 is indicated by three stars (***))
208 to 218 °C | O=c1cc(-c2cncc(Cl)c2)nc2ccc(N3CCNCC3)cn12 [Compound 94, 2-(5-chloropyridin-3-yl)-7-(piperazin-1-yl)-4H-pyrido[1,2-a]pyrimidin-4-one] | 1 to 3 µM | – | *** (a fold increase between >1.35 and ≤1.5 is indicated by three stars (***))
201 to 209 °C | COc1ncc(-c2cc(=O)n3cc(N4CCNCC4)ccc3n2)cc1Cl [Compound 96, 2-(5-chloro-6-methoxypyridin-3-yl)-7-(piperazin-1-yl)-4H-pyrido[1,2-a]pyrimidin-4-one] | 0.3 to 1 µM | *** (an EC1.5× between >0.3 μM and ≤1 μM is indicated by three stars (***)) | **** (a fold increase between >1.5 and ≤1.65 is indicated by four stars (****))
202 to 206 °C | O=c1cc(-c2ccc3cc[nH]c3c2)nc2ccc(N3CCNCC3)cn12 [Compound 97, 2-(1H-indol-6-yl)-7-(piperazin-1-yl)-4H-pyrido[1,2-a]pyrimidin-4-one] | 1 to 3 µM | – | ** (a fold increase between >1.2 and ≤1.35 is indicated by two stars (**))
233 to 237 °C | O=c1cc(-c2ccc(O)c(OC(F)F)c2)nc2ccc(N3CCNCC3)cn12 [Compound 100, 2-[3-(difluoromethoxy)-4-hydroxyphenyl]-7-(piperazin-1-yl)-4H-pyrido[1,2-a]pyrimidin-4-one] | 0.3 to 1 µM | *** (an EC1.5× between >0.3 μM and ≤1 μM is indicated by three stars (***)) | ***** (a fold increase >1.65 is indicated by five stars (*****))
